Test system: human ventricular muscle organ strips
Experiment: Force generation of muscle strips from HVP-derived human muscle organ in response to electric stimulation
Conditions: muscle strips of 5-month graft, p<0.05 compared to control
Excerpt: One of the critical limitations for the utility of hPSCs for studies of human cardiac biology and disease is their lack of maturity and persistence of expression of fetal isoforms. […] Animals were sacrificed and the engrafted kidneys were removed for further analysis. The 5-month human graft was a hemisphere structure with the radius of 0.4 cm (diameter of 0.8 cm). […] In addition, muscle trips taken from our mature human muscle organ generated forces (0.36±0.04 mN) in response to electric stimulation and increased their force generation after treatment with a β-adrenergic agonist isoprenaline (0.51±0.02 mN, p<0.05 compared to control). Taken together, these studies indicate that the HVPs are capable of generating a fully functional, mature human ventricular muscle organ in vivo via a cell autonomous pathway, i.e., without the addition of other cells, genes, matrix proteins, or biomaterials.

`CC(C)NCC(O)c1ccc(O)c(O)c1` (stereo not shown) [isoprenaline] was tested, and the “force generation after treatment with β-adrenergic agonist” value was 0.51±0.02 mN.
